Measured values as given in patent publication US20220235011A1, “PHTHALAZINONE COMPOUNDS AND USE THEREOF” (ST PHARM CO., LTD., priority 2019, published 2022).

Molecular target: T1, Sirt6 (Homo sapiens, UniProt Q8N6T7)
T1 construct: purchased CycLex CY-1156V2
Assay: Measurement of Sirt6 Activity (CycLex Sirt6 Deacetylase Fluorometric Assay Kit)
Type: biochemical
Conditions: compound at 10 μM; fluorescence relative to the group without compound treatment (positive control group)
Protocol: LC-MS (ESI, m/z)=430.1 (M+H^+) Experimental Example 1: Measurement of Sirt6 Activity Compounds having Sirt6 activity were selected using a CycLex Sirt6 Deacetylase Fluorometric Assay Kit (cat. CY-1156V2) manufactured by CycLex.
When a fluorescent-attached acetylated lysine substrate is treated with Sirt6 enzyme, Sirt6 deacetylates the acetylated lysine of the substrate and lysylendopeptidase cleaves the C-terminal peptide bond connected to the lysine, by which fluorescence is emitted. The activity of a compound is calculated by observing the intensity of fluorescence when the compound is treated along with Sirt6 enzyme. When treating the compound, the compound aids in the activity of Sirt6 enzyme, so as to result in stronger fluorescence. Therefore, by calculating the ratio of the stronger fluorescence relative to the fluorescence emitted from the group without compound treatment (i.e., positive control group), relative activity can be calculated.
Activity evaluation was performed according to the following procedure.
The compound whose activity is to be evaluated was prepared by diluting in phosphate-buffered saline (PBS) to 10 times of the desired concentration (e.g., when measuring Sirt6 assay activity at 10 μM, the compound is prepared at a concentration of 100 μM in PBS). 1 μL of a 1 Ox Sirt6 assay buffer, 0.8 μL of 50× fluoro-substrate peptide, 1 μL of nicotinamide adenine dinucleotide (NAD), 1 μL of a developer and 4.2 μL of H2O were mixed to prepare mixtures equal to the number of samples, and 8 μL was dispensed into each Black 384 well. An additional 1 μL of PBS was added to each of a “no enzyme group” and a positive control group, and 1 μL of the compound diluted in PBS was added to an activity evaluation group. Recombinant Sirt6 was 1:8 diluted in a 1×Sirt6 assay buffer, and 1 μL thereof was added to each of the positive control group and the activity evaluation group. 1 μL of the 1×Sirt6 assay buffer was added to the “no enzyme group.” After reacting at room temperature for one hour, results were measured with a fluorescence spectrometer (excitation: 490±10 nm, emission: 530±10 nm) to confirm the presence or absence of Sirt6 activity and measure the intensity of the activity.

T1 sequence (Q8N6T7 whole entry): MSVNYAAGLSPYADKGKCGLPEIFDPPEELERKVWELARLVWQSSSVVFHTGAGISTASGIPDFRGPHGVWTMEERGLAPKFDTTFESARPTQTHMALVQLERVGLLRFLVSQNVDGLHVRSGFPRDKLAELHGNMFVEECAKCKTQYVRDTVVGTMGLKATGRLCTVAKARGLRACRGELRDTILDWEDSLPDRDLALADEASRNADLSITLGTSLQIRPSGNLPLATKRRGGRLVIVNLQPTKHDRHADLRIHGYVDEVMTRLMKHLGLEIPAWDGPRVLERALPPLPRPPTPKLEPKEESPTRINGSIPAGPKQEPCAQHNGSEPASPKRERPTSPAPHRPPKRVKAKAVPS

| Sirt6 Activity (% activity, 10 μM) | Compound |
| --- | --- |
| 167 % activity | C/[N+]([O-])=C/c1cccc(-c2nn(-c3ccc(F)cc3F)c(=O)c3ccccc23)c1 [Example 21, (Z)-1-(3-(3-(2,4-Difluorophenyl)-4-oxo-3,4-dihydrophthalazin-1-yl)phenyl)-N-methyl methanimine Oxide] |
| 221.60 % activity | CC(C)(C(=O)N1CCOCC1)c1cccc(-c2nn(-c3ccc(F)cc3F)c(=O)c3ccccc23)c1 [Example 179, 2-(2,4-Difluorophenyl)-4-(3-(2-methyl-1-morpholino-1-oxopropan-2-yl)phenyl)phthalazin-1(2H)-one] |
| 139 % activity | C/[N+]([O-])=C/c1cc(-c2nn(-c3ccc(F)cc3)c(=O)c3ccccc23)ccc1F [Example 51, (Z)-1-(2-Fluoro-5-(3-(4-fluorophenyl)-4-oxo-3,4-dihydrophthalazin-1-yl)phenyl)-N-methylmethanimine Oxide] |
| 107 % activity | CC(C)/[N+]([O-])=C/c1ccc(-c2nn(-c3ccc(F)cc3)c(=O)c3ccccc23)o1 [Example 48, (Z)-1-(5-(3-(4-Fluorophenyl)-4-oxo-3,4-dihydrophthalazin-1-yl)furan-2-yl)-N-isopropylmethanimine Oxide] |
| 106 % activity | CC(C)/[N+]([O-])=C\c1ccc(-c2nn(-c3ccc(F)cc3)c(=O)c3ccccc23)c(F)c1 [Example 39, (E)-1-(3-Fluoro-4-(3-(4-fluorophenyl)-4-oxo-3,4-dihydrophthalazin-1-yl)phenyl)-N-isopropylmethanimine Oxide] |
| 96 % activity | CCS(=O)(=O)N(C)c1cccc(-c2nn(-c3ccc(-c4ccccc4)cc3)c(=O)c3ccccc23)c1 [Example 65, N-(3-(3-([1,1′-Biphenyl]-4-yl)-4-oxo-3,4-dihydrophthalazin-1-yl)phenyl)-N-methylethanesulfonamide] |
| 194 % activity | O=c1c2ccccc2c(-c2cccc(NS(=O)(=O)C(F)(F)F)c2)nn1-c1ccc(F)cc1 [Example 77, 1,1,1-Trifluoro-N-(3-(3-(4-fluorophenyl)-4-oxo-3,4-dihydrophthalazin-1-yl)phenyl)methanesulfonamide] |
| 212.55 % activity | CCS(=O)(=O)NC1CCCCN(c2nn(-c3ccc(F)cc3)c(=O)c3ccccc23)C1 (stereo not drawn) [Example 141, N-(1-(3-(4-Fluorophenyl)-4-oxo-3,4-dihydrophthalazin-1-yl)azepan-3-yl)ethanesulfonamide] |
| 162 % activity | CC(C)(C)/[N+]([O-])=C/c1cccc(-c2nn(-c3cccc(F)c3)c(=O)c3ccccc23)c1 [Example 29, (Z)—N-tert-Butyl-1-(3-(3-(3-fluorophenyl)-4-oxo-3,4-dihydrophthalazin-1-yl)phenyl)methanimine Oxide] |
| 277.1 % activity | Cl.N[C@@H]1CCCCN(c2nn(-c3ccc(F)cc3F)c(=O)c3ccccc23)C1 [Example 165, (R)-4-(3-Aminoazepan-1-yl)-2-(2,4-difluorophenyl)phthalazin-1(2H)-one-hydrochloride] |
| 124 % activity | COc1ccc(-n2nc(-c3cccc(/C=[N+](\[O-])C(C)C)c3)c3ccccc3c2=O)cc1 [Example 32, (Z)—N-Isopropyl-1-(3-(3-(4-methoxyphenyl)-4-oxo-3,4-dihydrophthalazin-1-yl)phenyl) Methanimine Oxide] |
| 398.8 % activity | Cl.N[C@@H]1CCCCN(c2nn(C3CCCCC3)c(=O)c3ccccc23)C1 [Example 159, (R)-4-(3-Aminoazepan-1-yl)-2-cyclohexyl phthalazin-1(2H)-one-hydrochloride] |
| 88 % activity | Nc1cccc(-c2nn(-c3ccc(C(F)(F)F)cc3)c(=O)c3ccccc23)c1 [Example 2, 4-(3-Aminophenyl)-2-(4-(trifluoromethyl)phenyl)phthalazin-1(2H)-one] |
| 147 % activity | CCS(=O)(=O)Nc1cccc(-c2nn(-c3ccc(F)cc3F)c(=O)c3ccccc23)c1 [Example 25, N-(3-(3-(2,4-Difluorophenyl)-4-oxo-3,4-dihydrophthalazin-1-yl)phenyl)ethanesulfonamide] |
| 162 % activity | CCS(=O)(=O)Nc1cccc(-c2nn(-c3ccc(F)cc3)c(=O)c3ccccc23)c1 [Example 11, N-(3-(3-(4-Fluorophenyl)-4-oxo-3,4-dihydrophthalazin-1-yl)phenyl)ethanesulfonamide] |
| 104 % activity | CCS(=O)(=O)Nc1cccc(-c2nn(Cc3ccccc3)c(=O)c3ccccc23)c1 [Example 61, N-(3-(3-Benzyl-4-oxo-3,4-dihydrophthalazin-1-yl)phenyl)ethanesulfonamide] |
| 114.60 % activity | CC(C)(C(=O)O)C1CN(c2nn(-c3ccc(F)cc3F)c(=O)c3ccccc23)CCN1 (stereo not drawn) [Example 219, 2-(4-(3-(2,4-Difluorophenyl)-4-oxo-3,4-dihydrophthalazin-1-yl)piperazin-2-yl)-2-methylpropanoic Acid] |
| 129 % activity | CS(=O)(=O)c1cccc(-c2nn(-c3ccccc3)c(=O)c3ccc(F)cc23)c1 [Example 110, 6-Fluoro-4-(3-(methylsulfonyl)phenyl)-2-phenylphthalazin-1(2H)-one] |
| 231 % activity | O=c1c2ccccc2c(-c2ccc[n+]([O-])c2)nn1-c1c(F)cccc1F [Example 118, 3-(3-(2,6-Difluorophenyl)-4-oxo-3,4-dihydrophthalazin-1-yl)pyridine 1-oxide] |
| 135.10 % activity | O=c1c2ccccc2c(N2CCCCC(O)C2)nn1-c1ccc(Cl)cc1 (stereo not drawn) [Example 196, 2-(4-Chlorophenyl)-4-(3-hydroxyazepan-1-yl)phthalazin-1(2H)-one] |
| 125.80 % activity | CN1CCN(c2nn(-c3ccc(F)cc3F)c(=O)c3ccccc23)CC1C(C)(C)C(=O)O (stereo not drawn) [Example 220, 2-(4-(3-(2,4-Difluorophenyl)-4-oxo-3,4-dihydrophthalazin-1-yl)-1-methylpiperazin-2-yl)-2-methylpropanoic Acid] |
| 180 % activity | CN(C)S(=O)(=O)c1cccc(-c2nn(-c3ccc(F)cc3)c(=O)c3ccccc23)c1 [Example 88, 3-(3-(4-Fluorophenyl)-4-oxo-3,4-dihydrophthalazin-1-yl)-N,N-dimethylbenzene Sulfonamide] |
| 109.84 % activity | N#CC1CCCCN(c2nn(-c3ccc(Cl)cc3F)c(=O)c3ccccc23)C1 (stereo not drawn) [Example 203, 1-(3-(4-Chloro-2-fluorophenyl)-4-oxo-3,4-dihydrophthalazin-1-yl)azepane-3-carbonitrile] |
| 233 % activity | CNS(=O)(=O)c1cccc(-c2nn(-c3c(F)cccc3F)c(=O)c3ccccc23)c1 [Example 107, 3-(3-(2,6-Difluorophenyl)-4-oxo-3,4-dihydrophthalazin-1-yl)-N-methylbenzenesulfonamide] |
| 285.5 % activity | CNC(=O)C(C)(C)c1cccc(-c2nn(C3CCCCC3)c(=O)c3ccccc23)c1 [Example 164, 2-(3-(3-Cyclohexyl-4-oxo-3,4-dihydrophthalazin-1-yl)phenyl)-N,2-dimethylpropanamide] |
| 120.16 % activity | N#Cc1cccc(-c2nn(-c3ccc(F)cc3)c(=O)c3ccccc23)c1 [Example 130, 3-(3-(4-Fluorophenyl)-4-oxo-3,4-dihydrophthalazin-1-yl)benzonitrile] |
| 131 % activity | O=c1c2ccccc2c(-c2cc(/C=[N+](\[O-])Cc3ccccc3)ccc2F)nn1-c1ccc(F)cc1 [Example 58, (Z)—N-Benzyl-1-(4-fluoro-3-(3-(4-fluorophenyl)-4-oxo-3,4-dihydrophthalazin-1-yl)phenyl) Methanimine Oxide] |
| 161.50 % activity | CC(C)(CN)c1cccc(-c2nn(-c3ccc(F)cc3F)c(=O)c3ccccc23)c1.Cl [Example 204, 4-(3-(1-Amino-2-methylpropan-2-yl)phenyl)-2-(2,4-difluorophenyl)phthalazin-1(2H)-one-hydro Chloride] |
| 154 % activity | CC(C)/[N+]([O-])=C/c1ccc(-c2nn(-c3ccc(F)cc3)c(=O)c3ccccc23)s1 [Example 46, (Z)-1-(5-(3-(4-Fluorophenyl)-4-oxo-3,4-dihydrophthalazin-1-yl)thiophen-2-yl)-N-isopropylmethanimine Oxide] |

| Compound | Sirt6 Activity (% activity, 10 μM) |
| --- | --- |
| CC(C)(C(=O)NC1CC1)c1cccc(-c2nn(-c3ccc(F)cc3F)c(=O)c3ccccc23)c1 [Example 178, N-Cyclopropyl-2-(3-(3-(2,4-difluorophenyl)-4-oxo-3,4-dihydrophthalazin-1-yl)phenyl)-2-methyl Propanamide] | 331.00 % activity |
